Experimental data as given in patent US9346761B2, “Arginine methyltransferase inhibitors and uses thereof” (Epizyme, Inc., priority 2013, dated 2016).

How the values were obtained:
Full-length human PRMT6 = molecular target: T1, Full-length human PRMT6 (Homo sapiens, UniProt Q96LA8); experiment: PRMT6 biochemical assay (3H-SAM Flashplate, peptide substrate)
T1 construct: Flag-PRMT6-His was eluted with 200 ug/ml FLAG peptide in the same buffer; made in house; host or cells: HEK 293F cells (BacMam virus, pFastBacMam)
In short: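 Read-out is 3H-methylated histone H4 (36-50) peptide bound to streptavidin Flashplates after a cold-SAM stop. Baculovirus-expressed Flag-PRMT6-His met compound for 30 min at room temperature before SAM and peptide; Bicine pH 7.6 buffer. IC50 fitted to % inhibition normalized to SAH (min) and DMSO (max).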

Full-length human PRMT8 = molecular target: T2, Full-length human PRMT8 (Homo sapiens, UniProt Q9NR22); experiment: PRMT8 biochemical assay (3H-SAM Flashplate, peptide substrate)
T2 construct: Full-length human PRMT8 (NM_019854.4) isoform 1 transcript clone; made in house
In short: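 Methylation of a biotinylated H4 (31-45) peptide by ³H-SAM was counted after streptavidin Flashplate capture. Purified recombinant PRMT8 and compound were preincubated 30 min at room temperature in Bicine buffer pH 7.6 with TCEP, BSG and Tween 20, and reactions were stopped with unlabeled SAM (final 400 μM). Inhibition versus DMSO and SAH controls was fit by 3- or 4-parameter curves.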

T2 sequence (Q9NR22 whole entry, canonical isoform): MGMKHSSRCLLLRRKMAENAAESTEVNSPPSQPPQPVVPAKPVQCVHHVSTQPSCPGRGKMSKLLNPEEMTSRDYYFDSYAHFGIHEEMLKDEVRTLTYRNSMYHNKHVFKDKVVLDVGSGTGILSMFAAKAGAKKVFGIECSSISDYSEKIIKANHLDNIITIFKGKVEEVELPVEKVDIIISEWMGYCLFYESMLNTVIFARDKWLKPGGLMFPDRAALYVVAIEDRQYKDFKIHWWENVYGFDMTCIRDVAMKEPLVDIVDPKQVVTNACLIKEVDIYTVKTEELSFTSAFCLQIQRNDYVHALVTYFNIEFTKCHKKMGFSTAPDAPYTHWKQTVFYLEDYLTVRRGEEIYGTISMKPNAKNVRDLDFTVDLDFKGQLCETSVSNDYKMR
T1 sequence (Q96LA8 with tags, fused parts or gaps): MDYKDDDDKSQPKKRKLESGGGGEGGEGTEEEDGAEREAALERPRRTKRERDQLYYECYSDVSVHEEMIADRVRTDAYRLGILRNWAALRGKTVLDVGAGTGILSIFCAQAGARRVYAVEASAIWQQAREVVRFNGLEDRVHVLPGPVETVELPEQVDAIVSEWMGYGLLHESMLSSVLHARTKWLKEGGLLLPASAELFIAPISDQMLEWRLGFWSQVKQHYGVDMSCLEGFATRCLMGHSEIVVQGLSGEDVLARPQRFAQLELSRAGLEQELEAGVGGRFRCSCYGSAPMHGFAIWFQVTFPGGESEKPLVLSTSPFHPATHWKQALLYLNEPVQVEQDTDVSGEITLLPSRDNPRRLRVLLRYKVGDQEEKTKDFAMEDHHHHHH

Structure (SMILES) | IC50 (Full-length human PRMT6) | IC50 (Full-length human PRMT8)
CN(CCN)Cc1c[nH]nc1-c1ccc(OC(F)F)cc1 [Compound 94] | < 0.1 µM | 0.101 to 1 µM
CN(CCN)Cc1cn(CC(O)CO)nc1-c1ccc(F)cc1 (stereo not drawn) [Compound 76] | 1.01 to 3 µM | > 10 µM
CCCN(CCN)Cc1c[nH]nc1-c1ccc(F)cc1 [Compound 63] | 1.01 to 3 µM | 3.01 to 10 µM
CN(CCN)Cc1cn(CCO)nc1-c1ccc(F)cc1 [Compound 66] | 1.01 to 3 µM | 3.01 to 10 µM
CNCCN(C)Cc1c[nH]nc1-c1ccc(OC)cc1OC [Compound 55] | < 0.1 µM | 3.01 to 10 µM
CN(CCN)Cc1c(-c2ccc(C#N)cc2)cnn1C [Compound 84] |  | > 10 µM
CNCCN(C)Cc1c[nH]nc1-c1ccccc1O [Compound 35] | 0.101 to 1 µM | > 10 µM
CNCCN(C)Cc1c[nH]nc1-c1ccccc1Oc1ccccc1 [Compound 36] | 1.01 to 3 µM | > 10 µM
CNCCN(C)Cc1c[nH]nc1-c1ccc(F)cc1 [Compound 2, N^1-((3-(4-fluorophenyl)-1H-pyrazol-4-yl)methyl)-N^1,N^2-dimethylethane-1,2-diamine] | < 0.1 µM | 0.101 to 1 µM
CN(CCN)Cc1cn(C)nc1-c1ccc(F)cc1 [Compound 3] | < 0.1 µM | 0.101 to 1 µM
CNCCN(C)Cc1c[nH]nc1-c1ccc(-c2ccccc2)cc1 [Compound 47] | < 0.1 µM | < 0.1 µM
CN(CCN)Cc1c[nH]nc1-c1cccc(C#N)c1 [Compound 70] | < 0.1 µM | 1.01 to 3 µM
CNCCN(C)Cc1c[nH]nc1-c1c(OC)cccc1OC [Compound 56] | 1.01 to 3 µM | > 10 µM
CNCCN(C)Cc1c[nH]nc1-c1ccccc1F [Compound 48] | < 0.1 µM | 1.01 to 3 µM
CN(CCN)Cc1c[nH]nc1-c1cccc(F)c1 [Compound 71] | < 0.1 µM | 0.101 to 1 µM
Cc1ccc(-c2n[nH]cc2CN(C)CCN)c(Cl)c1 [Compound 90] | < 0.1 µM | 1.01 to 3 µM
COc1ccc(-c2n[nH]cc2CN(C)CCN)c(OC)c1 [Compound 87] | 0.101 to 1 µM | 3.01 to 10 µM
CN(CCN)Cc1c[nH]nc1-c1ccccc1F [Compound 72] | < 0.1 µM | 3.01 to 10 µM
CNCCN(C)Cc1cnn(CC2CCOCC2)c1-c1ccc(F)cc1 [Compound 12] | 0.101 to 1 µM | > 10 µM
CNCCN(C)Cc1c[nH]nc1-c1ccc(C(=O)c2ccccc2)cc1 [Compound 45] | < 0.1 µM | 0.101 to 1 µM
COCCn1cc(CN(C)CCN(C)C)c(-c2ccc(F)cc2)n1 [Compound 61] |  | > 10 µM
CNCCN(C)Cc1cnn(C)c1-c1ccc(F)cc1 [Compound 10] |  | 0.101 to 1 µM

Structure (SMILES) | IC50 (Full-length human PRMT6) | IC50 (Full-length human PRMT8)
CNCCN(C)Cc1c[nH]nc1-c1cccc2ccccc12 [Compound 57] | < 0.1 µM | 0.101 to 1 µM
CN(CCN)Cc1c[nH]nc1-c1ccc(OC(F)(F)F)cc1 [Compound 93] | < 0.1 µM | < 0.1 µM
NCCN(Cc1c[nH]nc1-c1ccc(F)cc1)C1CC1 [Compound 78] | < 0.1 µM | 1.01 to 3 µM
CN(CCN)Cc1cnn(CC2COC2)c1-c1ccc(F)cc1 [Compound 80] |  | > 10 µM
CNCCN(C)Cc1c[nH]nc1-c1cc(Cl)ccc1OC [Compound 53] | 0.101 to 1 µM | > 10 µM
CN(CCN)Cc1c[nH]nc1-c1ccc(C#N)cc1 [Compound 68] | < 0.1 µM | 0.101 to 1 µM
CNCCN(C)Cc1c[nH]nc1-c1ccc(CC#N)cc1 [Compound 34] | < 0.1 µM | 0.101 to 1 µM
CNCCN(C)Cc1cn(CC2CCOCC2)nc1-c1ccc(F)cc1 [Compound 11] |  | > 10 µM
CNCCN(C)Cc1c[nH]nc1-c1cccc(N)c1 [Compound 32] | < 0.1 µM | 1.01 to 3 µM
CN(CCN)Cc1c[nH]nc1-c1ccc(Cl)cc1Cl [Compound 86] | < 0.1 µM | 0.101 to 1 µM
CNCCN(C)Cc1c[nH]nc1-c1ccc(OC)c(F)c1 [Compound 52] | < 0.1 µM | 0.101 to 1 µM
CCN(CCNC)Cc1c[nH]nc1-c1ccc(F)cc1 [Compound 9] |  | 0.101 to 1 µM
CN(CCN)Cc1n[nH]cc1-c1ccc(F)cc1 [Compound 69] | < 0.1 µM | 1.01 to 3 µM
CN(CCN)Cc1c[nH]nc1-c1ccc(N2CCNCC2)cc1 [Compound 82] | 0.101 to 1 µM | 1.01 to 3 µM
CN(CCN)Cc1cn[nH]c1-c1ccc(F)cc1 [Compound 1] | < 0.1 µM | 
CN(CCN)Cc1cn(CC2COC2)nc1-c1ccc(F)cc1 [Compound 79] |  | > 10 µM
CNCCN(C)Cc1c[nH]nc1-c1ccc(F)c(F)c1 [Compound 51] | < 0.1 µM | 0.101 to 1 µM
CNCCN(C)Cc1c[nH]nc1-c1cccc(NC(C)=O)c1 [Compound 42] | < 0.1 µM | 1.01 to 3 µM
CNCCN(C)Cc1c[nH]nc1-c1cccc(OC(F)(F)F)c1 [Compound 39] | < 0.1 µM | 0.101 to 1 µM
CCNCCN(C)Cc1c[nH]nc1-c1ccc(F)cc1 [Compound 60] | < 0.1 µM | 1.01 to 3 µM
CN(CCN)Cc1cn(C2COC2)nc1-c1ccc(F)cc1 [Compound 77] | 0.101 to 1 µM | 1.01 to 3 µM
CN(CCN)Cc1c[nH]nc1-c1ccc(F)cc1Cl [Compound 89] | < 0.1 µM | 1.01 to 3 µM

Structure (SMILES) | IC50 (Full-length human PRMT6) | IC50 (Full-length human PRMT8)
CN(CCN)Cc1cnn(CCO)c1-c1ccc(F)cc1 [Compound 65] | 0.101 to 1 µM | 3.01 to 10 µM
CNCCN(C)Cc1c[nH]nc1-c1cc(F)ccc1F [Compound 50] | < 0.1 µM | 1.01 to 3 µM
COCCn1ncc(CN(C)CCN(C)C)c1-c1ccc(F)cc1 [Compound 64] | 1.01 to 3 µM | > 10 µM
CCN(CCN)Cc1c[nH]nc1-c1ccc(F)cc1 [Compound 62] | < 0.1 µM | 0.101 to 1 µM
CN(CCN)Cc1cnn(C2COC2)c1-c1ccc(F)cc1 [Compound 81] | 0.101 to 1 µM | 3.01 to 10 µM
CNCCN(C)Cc1c[nH]nc1-c1cccc(C(C)=O)c1 [Compound 44] | < 0.1 µM | 0.101 to 1 µM
CNCCN(C)Cc1c[nH]nc1-c1ccc(F)cc1F [Compound 49] | < 0.1 µM | 0.101 to 1 µM
CC(C)Oc1ccc(-c2n[nH]cc2CN(C)CCN)cc1Cl [Compound 168] | < 0.1 µM | 
CN(CCN)Cc1c[nH]nc1-c1ccccc1 [Compound 73] | < 0.1 µM | 0.101 to 1 µM
CNCCN(C)Cc1cn(CCC(O)CO)nc1-c1ccc(F)cc1 (stereo not drawn) [Compound 59] | 0.101 to 1 µM | 3.01 to 10 µM
CN(CCN)Cc1nn(C)cc1-c1ccc(C#N)cc1 [Compound 83] | < 0.1 µM | 0.101 to 1 µM
Cc1ccc(Cl)c(-c2n[nH]cc2CN(C)CCN)c1 [Compound 91] | 0.101 to 1 µM | 3.01 to 10 µM
CNCCN(C)Cc1c[nH]nc1-c1cccc(OC)c1OC [Compound 54] | 0.101 to 1 µM | 3.01 to 10 µM
CN(CCN)Cc1cnn(C)c1-c1ccc(F)cc1 [Compound 4] | < 0.1 µM | 1.01 to 3 µM
CNCCN(C)Cc1c[nH]nc1-c1ccccc1-c1ccccc1 [Compound 46] | 3.01 to 10 µM | > 10 µM
Cc1ccc(-c2n[nH]cc2CN(C)CCN)c(C)c1 [Compound 88] | < 0.1 µM | 1.01 to 3 µM
CC(C)N(CCN)Cc1c[nH]nc1-c1ccc(F)cc1 [Compound 75] | 1.01 to 3 µM | 1.01 to 3 µM
CNCCN(C)Cc1c[nH]nc1-c1ccccc1NS(C)(=O)=O [Compound 41] | 3.01 to 10 µM | > 10 µM
CN(CCN)Cc1c[nH]nc1-c1ccc(C(C)(C)C)cc1 [Compound 74] | < 0.1 µM | 0.101 to 1 µM
CN(CCN)Cc1c[nH]nc1-c1ccc(C(F)(F)F)cc1 [Compound 92] | < 0.1 µM | 0.101 to 1 µM
CNCCN(C)Cc1c[nH]nc1-c1ccc2ccccc2c1 [Compound 58] | < 0.1 µM | 0.101 to 1 µM
CN(CCN)Cc1c[nH]nc1-c1ccc(C(F)(F)F)cc1C(F)(F)F [Compound 85] | 0.101 to 1 µM | 3.01 to 10 µM
